Test results reported in PMC10154775, “Specificity of Penicillin Acylases in Deprotection of N-Benzyloxycarbonyl Derivatives of Amino Acids” (Acta Naturae, 2023).

Biological target: T1, Penicillin acylase from Escherichia coli (Escherichia coli, UniProt P06875)
T1 construct: gene pac; prepared by a procedure described earlier
Experiment: KM as competitive inhibition constant of NIPAB hydrolysis, […] nm
Type: biochemical
Conditions: pH 7.5, 0.01 M phosphate, 0.1 M KCl, 25 C; competitive with NIPAB

T1 sequence (P06875 27-235, looked up): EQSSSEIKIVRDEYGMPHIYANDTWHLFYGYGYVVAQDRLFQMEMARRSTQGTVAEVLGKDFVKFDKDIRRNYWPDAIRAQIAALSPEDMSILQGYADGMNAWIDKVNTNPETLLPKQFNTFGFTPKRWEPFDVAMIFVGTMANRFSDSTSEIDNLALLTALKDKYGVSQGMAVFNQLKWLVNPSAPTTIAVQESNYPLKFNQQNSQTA
T1 sequence (P06875 290-846, looked up): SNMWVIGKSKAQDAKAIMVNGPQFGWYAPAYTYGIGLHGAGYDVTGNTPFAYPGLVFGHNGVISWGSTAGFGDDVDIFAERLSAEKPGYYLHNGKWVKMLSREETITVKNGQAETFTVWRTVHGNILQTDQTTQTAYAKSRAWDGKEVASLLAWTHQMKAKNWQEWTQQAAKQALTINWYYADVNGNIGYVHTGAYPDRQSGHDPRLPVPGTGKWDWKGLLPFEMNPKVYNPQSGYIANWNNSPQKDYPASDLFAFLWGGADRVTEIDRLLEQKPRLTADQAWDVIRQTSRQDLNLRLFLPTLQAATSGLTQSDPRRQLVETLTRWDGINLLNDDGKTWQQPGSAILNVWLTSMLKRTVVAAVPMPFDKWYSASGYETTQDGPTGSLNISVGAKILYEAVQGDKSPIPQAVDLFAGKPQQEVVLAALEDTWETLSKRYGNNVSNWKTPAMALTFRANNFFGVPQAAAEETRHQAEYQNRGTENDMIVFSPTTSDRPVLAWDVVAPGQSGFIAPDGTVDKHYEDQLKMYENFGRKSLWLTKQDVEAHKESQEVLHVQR

| Compound | KM |
| --- | --- |
| O=C(O)C[C@H](NC(=O)OCc1ccccc1)C(=O)O [N-benzyloxycarbonyl derivative of aspartic acid] | the least effective binding substrates for penicillin acylase from Escherichia coli are derivatives of aspartic acid |
| C[C@H](NC(=O)OCc1ccccc1)C(=O)O [N-benzyloxycarbonyl-L-Ala] | expressed as the catalytic constant value (%) with respect to the corresponding alanine derivatives |
| O=C(O)C[C@H](NC(=O)Cc1ccccc1)C(=O)O [N-phenylacetyl derivative of aspartic acid] | the least effective binding substrates for penicillin acylase from Escherichia coli are derivatives of aspartic acid |
